Assay results as given in BigSolDB 2.1.

c1ccc2c(c1)CCc1ccccc1N2
solubility (mole fraction)
Details | 283.15 K | 288.15 K | 293.15 K | 298.15 K | 303.15 K | 308.15 K | 313.15 K | 318.15 K | 323.15 K | 328.15 K
in DMSO | – | – | 0.0199 | 0.0239 | 0.0285 | 0.0336 | 0.0391 | 0.045 | 0.0516 | 0.0592
in ethanol | 0.000769 | 0.00102 | 0.00136 | 0.00175 | 0.00227 | 0.00284 | 0.0036 | 0.00453 | 0.00558 | 0.00691
in ethylene glycol | 0.000351 | 0.000427 | 0.000494 | 0.000566 | 0.000642 | 0.000722 | 0.000812 | 0.000905 | 0.00101 | 0.00111
in isopropanol | 0.000448 | 0.000585 | 0.000783 | 0.000992 | 0.00127 | 0.00161 | 0.00204 | 0.00253 | 0.00314 | 0.00388
in water | 8.4e-07 | 1.27e-06 | 1.83e-06 | 2.73e-06 | 3.77e-06 | 5.41e-06 | 7.42e-06 | 1.02e-05 | 1.39e-05 | 1.87e-05
